The values below come from patent publication US12691101B2, “Compound and method for preventing or treating of respiratory diseases comprising the same as an active ingredient” (YONSEI UNIVERSITY, UNIVERSITY - INDUSTRY FOUNDATION (UIF), priority 2019, dated 2026).

The first assay has as its target T1, human wild-type (WT)-pendrin (Homo sapiens, UniProt O43511).
T1 construct: expressed in transfected cells
T1 sequence (O43511 1-780): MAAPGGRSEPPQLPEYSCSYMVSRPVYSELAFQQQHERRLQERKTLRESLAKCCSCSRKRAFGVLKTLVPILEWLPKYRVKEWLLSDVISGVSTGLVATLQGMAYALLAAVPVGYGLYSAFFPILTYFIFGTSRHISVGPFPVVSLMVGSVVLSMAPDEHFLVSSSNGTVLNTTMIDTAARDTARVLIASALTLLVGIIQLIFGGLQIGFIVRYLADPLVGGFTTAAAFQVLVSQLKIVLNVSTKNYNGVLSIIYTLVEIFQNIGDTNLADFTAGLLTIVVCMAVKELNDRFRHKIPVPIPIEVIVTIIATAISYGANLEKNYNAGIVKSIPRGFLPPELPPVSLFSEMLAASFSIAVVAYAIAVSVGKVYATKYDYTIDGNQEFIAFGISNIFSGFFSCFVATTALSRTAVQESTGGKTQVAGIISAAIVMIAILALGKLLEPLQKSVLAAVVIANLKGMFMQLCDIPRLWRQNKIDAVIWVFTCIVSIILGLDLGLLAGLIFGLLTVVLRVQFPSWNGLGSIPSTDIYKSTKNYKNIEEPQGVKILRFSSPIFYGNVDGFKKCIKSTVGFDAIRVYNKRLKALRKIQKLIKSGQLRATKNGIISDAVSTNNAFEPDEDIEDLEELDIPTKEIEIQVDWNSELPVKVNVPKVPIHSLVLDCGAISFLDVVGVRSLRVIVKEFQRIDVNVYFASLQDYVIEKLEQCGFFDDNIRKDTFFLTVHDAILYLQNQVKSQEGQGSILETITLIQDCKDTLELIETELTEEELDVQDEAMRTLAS
Description: Pendrin-mediated Cl^−/I^− exchange activity, YFP fluorescence in CHO-K1 cells.
Details: not given
The format is cell-based. The method, then:
Chinese hamster ovary (CHO)-K1 cells were maintained in a DMEM medium containing 10% fetal bovine serum (FBS), 100 units/ml penicillin and 100 100 μg/ml streptomycin. CHO-K1 cells were stably transfected with pcDNA3.1 encoding halide sensor YFP-H148Q/I152L/F46L and human wild-type (WT)-pendrin. For distribution of primary culture of human nasal cavity epithelium (HNE) cells, passage-2 cells were seeded into transwell-transparent culture inserts with a pore size of 0.45 μm (Costar Co., Cambridge, MA) at a density of 2×10^5 cells/cm^2. The cells were maintained in a 1:1 mixture of Dulbecco's modified Eagle's medium (Lonza, Walkersville, MD) and bronchial epithelial growth medium (Lonza) supplemented with the following growth factors according to the manufacturer's instructions. After immersing the cells for the first 7 days, they were exposed to the apical air interface for the remainder of the culture period. After establishment of the air-liquid interface, the cells were used between 14 and 21 days. At all stages of culture, the cells were maintained at 37° C. under 5% CO2 in an air incubator.
CHO-K1 cells expressing human WT pendrin and YFP-F46L/H148Q/I152L were plated on a 96-well microplate at a density of 2×10^4 cells per well and cultured for 48 hours. Each well of the cell cultured 96-well plate was washed with PBS of 200 μL twice and was filled with HEPES buffer solution of 50 μL, respectively. […] After culturing at 37° C. for 10 minutes, the 96-well plate was positioned on FLUOstar Omega microplate reader (BMG Labtech, Ortenberg, Germany) for fluorescence analysis. By continuously (400 ms per point) recording fluorescence for 1 second (base line), each well was individually analyzed for pendrin-mediated I^− inflow, and then at 1 second, 50 μL of NaI-substituted HEPES buffer solution (NaI replacing NaCl) was added using a liquid injector and the YFP fluorescence was recorded for 5 seconds. The initial iodide inflow rate was determined from the initial slope of fluorescence by nonlinear regression, after injection the iodide (See FIG. 1).
For measurement of Cl^−/I^− exchange activity, YFP fluorescence was measured in pendrin and halide sensor YFP expressing CHO-K1 cells. Each well of the cell cultured 96-well plate was washed with PBS of 200 μL twice, and was filled with HEPES buffer solution (140 mM NaCl, 5 mM KCl, 1 mM MgCl2, 1 mM CaCl2, 10 mM glucose and 10 mM HEPES (pH 7.4)), respectively. […] After culturing at 37° C. for 10 minutes, the 96-well plate was positioned on FLUOstar Omega microplate reader (BMG Labtech, Ortenberg, Germany) for fluorescence analysis.
By continuously (400 ms per point) recording fluorescence for 1 second (base line), each well was individually analyzed for pendrin-mediated I^− inflow, and then at 1 second, 50 μL of NaI-substituted HEPES buffer solution (140 mM NaI, 5 mM KCl, 1 mM MgCl2, 1 mM CaCl2, 10 mM glucose and 10 mM HEPES (pH 7.4)) was added using a liquid injector and the YFP fluorescence was recorded for 5 seconds. The initial iodide inflow rate was determined from the initial slope of fluorescence by nonlinear regression, after injection the iodide.
Regarding `CC(C)(C)c1ccc(C(=O)NC(=Cc2ccc[nH]2)C(=O)O)cc1` [G7, 2-(4-(tert-butyl)benzamido)-3-(1H-pyrrol-2-yl)acrylate], the “efficacy as pendrin inhibitor compared with F10” value was “lower efficacy than F10”.

The same assay, now with this note: CHO-K1, 30 μM; read-out: Pendrin inhibitory activity at 30 μM (%).
Consider `CC(C)Cc1ccc(C2=NC(=Cc3csc4ccccc34)C(=O)O2)cc1` [F21, 4-(Benzo[b]thiophen-3-ylmethylene)-2-(4-isobutylphenyl)oxazol-5(4H)-one], for which the inhibition at 30 µM was 2.9%.

As to `Cc1ccc(C=C2N=C(c3ccc(C(C)(C)C)cc3)OC2=O)s1` [F96, 2-(4-(tert-butyl)phenyl)-4-((5-methylthiophen-2-yl)methylene)oxazol-5(4H)-one], the inhibition at 30 µM came to 3.4%.

As for `CCCc1ccc(C2=NC(=Cc3cccs3)C(=O)O2)cc1` [F144, 2-(4-Propylphenyl)-4-(thiophen-2-ylmethylene)oxazol-5(4H)-one], the inhibition at 30 µM worked out at 21.3%.

On to `COC(=O)C(=Cc1ccco1)NC(=O)c1ccc(C(F)(F)F)cc1` [G17, Methyl 3-(furan-2-yl)-2-(4-(trifluoromethyl)benzamido)acrylate], for which the inhibition at 30 µM came out at 1.1%.

As to `CCOc1cc(C=C2N=C(c3ccc(NC(C)=O)cc3)OC2=O)ccc1OC(=O)c1cccs1` [F69, 4-((2-(4-Acetamidophenyl)-5-oxooxazol-4(5H)-ylidene)methyl)-2-ethoxyphenylthiophene-2-carboxylate], the inhibition at 30 µM stood at 3.8%.

Regarding `CC(C)(C)c1ccc(C(=O)NC(=Cc2ccc[nH]2)C(=O)O)cc1` [G7, 2-(4-(tert-butyl)benzamido)-3-(1H-pyrrol-2-yl)acrylate], the inhibition at 30 µM turned out to be 82.1%.

`CCCc1ccc(C2=NC(=Cc3ccsc3)C(=O)O2)cc1` [F145, 2-(4-Propylphenyl)-4-(thiophen-3-ylmethylene)oxazol-5 (4H)-one]: the inhibition at 30 µM turned out to be 20.8%.

For `COc1ccccc1C1=NC(=Cc2ccc(OCC(N)=O)cc2)C(=O)O1` [F128, 2-(4-((2-(2-methoxyphenyl)-5-oxooxazol-4(5H)-ylidene)methyl)phenoxy)acetamide], the inhibition at 30 µM is 1.9%.

Regarding `Cc1ccc(C2=NC(=Cc3cn(S(=O)(=O)N(C)C)c4ccccc34)C(=O)O2)cc1` [F76, N,N-Dimethyl-3-((5-oxo-2-(p-tolyl)oxazol-4(5H)-ylidene)methyl)-1H-indole-1-sulfonamide], the inhibition at 30 µM was found to be 1.9%.

Turning to `COc1cc(C=C2N=C(c3ccccc3OC)OC2=O)ccc1OCc1c(C)noc1C` [F133, 4-(4-((3,5-Dimethylisoxazol-4-yl)methoxy)-3-methoxybenzylidene)-2-(2-methoxyphenyl)oxazol-5 (4H)-one], the inhibition at 30 µM worked out at 4.1%.

On to `O=C1OC(c2ccc(C(F)(F)F)cc2)=NC1=Cc1ccsc1` [F18, 4-(Thiophen-3-ylmethylene)-2-(4-(trifluoromethyl)phenyl)oxazol-5(4H)-one], for which the inhibition at 30 µM worked out at 3.4%.

For the compound `O=C1OC(c2ccc([N+](=O)[O-])cc2Cl)=NC1=Cc1cccs1` [F93, 2-(2-Chloro-4-nitrophenyl)-4-(thiophen-2-ylmethylene)oxazol-5(4H)-one], the inhibition at 30 µM came out at 2.5%.

Consider `O=C1OC(c2cccs2)=NC1=Cc1ccc(Br)s1` [F118, 4-((5-Bromothiophen-2-yl)methylene)-2-(thiophen-2-yl)oxazol-5(4H)-one], for which the inhibition at 30 µM stood at 2.1%.

Consider `COc1cc(C2=NC(=Cc3cccs3)C(=O)O2)ccc1OC(F)F` [F102, 2-(4-(Difluoromethoxy)-3-methoxyphenyl)-4-(thiophen-2-ylmethylene)oxazol-5 (4H)-one], for which the inhibition at 30 µM came out at 2.7%.

Turning to `CC(C)(C)c1ccc(C(=O)NC(=Cc2cccs2)C(=O)O)cc1` [G3, 2-(4-(tert-butyl)benzamido)-3-(thiophen-2-yl)acrylate], the inhibition at 30 µM was determined as 55.6%.

In the case of `O=C1OC(c2ccccc2OC(F)F)=NC1=Cc1ccc(Br)s1` [F121, 4-((5-Bromothiophen-2-yl)methylene)-2-(2-(difluoromethoxy)phenyl)oxazol-5(4H)-one], the inhibition at 30 µM was found to be 3.4%.

On to `C=CCOc1cc(N(CC)CC)ccc1C=C1N=C(c2ccc(NC(=O)c3cncc(Br)c3)cc2)OC1=O` [F66, N-(4-(4-(2-(Allyloxy)-4-(diethylamino)benzylidene)-5-oxo-4,5-dihydrooxazol-2-yl)phenyl)-5-bromonicotinamide], for which the inhibition at 30 µM was determined as 2.3%.

With `O=C1OC(c2ccc(Br)cc2)=NC1=Cc1cccs1` [F45, 2-(4-Bromophenyl)-4-(thiophen-2-ylmethylene)oxazol-5 (4H)-one], the inhibition at 30 µM is 4.6%.

On to `O=C(O)C(=Cc1cccs1)NC(=O)c1ccc(OC(F)F)cc1` [G39, 2-(4-(Difluoromethoxy)benzamido)-3-(thiophen-2-yl)acrylate], for which the inhibition at 30 µM is 3.2%.

With `CCCc1ccc(C(=O)NC(=Cc2ccc[nH]2)C(=O)O)cc1` [G28, 2-(4-Propylbenzamido)-3-(1H-pyrrol-2-yl)acrylate], the inhibition at 30 µM was found to be 53.5%.

Regarding `Cc1cc(C)cc(C2=NC(=Cc3cccs3)C(=O)O2)c1` [F150, 2-(3,5-Dimethylphenyl)-4-(thiophen-2-ylmethylene)oxazol-5(4H)-one], the inhibition at 30 µM was found to be 6.9%.

For the compound `O=C1OC(c2ccccc2OC(F)F)=NC1=C/C=C/c1ccco1` [F135, 2-(2-(difluoromethoxy)phenyl)-4-((E)-3-(furan-2-yl)allylidene)oxazol-5 (4H)-one], the inhibition at 30 µM was 2.8%.

`CCc1sc(C2=NC(=Cc3cccs3)C(=O)O2)cc1C` [F103, 2-(5-Ethyl-4-methylthiophen-2-yl)-4-(thiophen-2-ylmethylene)oxazol-5(4H)-one]: the inhibition at 30 µM worked out at 3.7%.

Take `CC(=O)Nc1ccc(C2=NC(=Cc3ccc(Br)s3)C(=O)O2)cc1` [F107, N-(4-(4-((5-bromothiophen-2-yl)methylene)-5-oxo-4,5-dihydrooxazol-2-yl)phenyl)acetamide]: the inhibition at 30 µM came to 2.9%.

For `O=C1OC(c2ccccc2)=NC1=Cc1cccs1` [F61, 2-Phenyl-4-(thiophen-2-ylmethylene)oxazol-5(4H)-one], the inhibition at 30 µM stood at 2.2%.

On to `COc1ccc(C2=NC(=Cc3ccc(Cl)s3)C(=O)O2)cc1` [F99, 4-((5-Chlorothiophen-2-yl)methylene)-2-(4-methoxyphenyl)oxazol-5(4H)-one], for which the inhibition at 30 µM is 2.4%.

Turning to `O=C1OC(/C=C/c2ccccc2)=NC1=Cc1cccs1` [F110, 2-((E)-styryl)-4-(thiophen-2-ylmethylene)oxazol-5 (4H)-one], the inhibition at 30 µM was 2.9%.

Take `CCOc1ccc2nc(Sc3ccccc3)c(C=C3N=C(c4ccccc4)OC3=O)cc2c1` [F70, 4-((6-Ethoxy-2-(phenylthio)quinolin-3-yl)methylene)-2-phenyloxazol-5(4H)-one]: the inhibition at 30 µM was 3.1%.

Consider `CC(C)c1ccc(C2=NC(=Cc3ccco3)C(=O)O2)cc1` [F49, 4-(Furan-2-ylmethylene)-2-(4-isopropylphenyl)oxazol-5 (4H)-one], for which the inhibition at 30 µM stood at 89.1%.

Staying with this assay, now noted: compounds showing pendrin inhibitory activity of 50% or more at 30 μM; read-out: IC50.
For `CC(C)(C)c1ccc(C(=O)NC(=Cc2ccc[nH]2)C(=O)O)cc1` [G7, 2-(4-(tert-butyl)benzamido)-3-(1H-pyrrol-2-yl)acrylate], the IC50 – broadly, the point on the concentration scale where inhibition reaches its midpoint – worked out at 6.8 ± 0.66 µM.

Turning to `CC(C)(C)c1ccc(C(=O)NC(=Cc2cccs2)C(=O)O)cc1` [G3, 2-(4-(tert-butyl)benzamido)-3-(thiophen-2-yl)acrylate], the IC50 came to 26.8 ± 2.54 µM.

Turning to `CCCc1ccc(C(=O)NC(=Cc2ccc[nH]2)C(=O)O)cc1` [G28, 2-(4-Propylbenzamido)-3-(1H-pyrrol-2-yl)acrylate], the half-maximal inhibitory concentration (IC50) was found to be 28.9 ± 2.18 µM.

Take `CC(C)c1ccc(C2=NC(=Cc3ccco3)C(=O)O2)cc1` [F49, 4-(Furan-2-ylmethylene)-2-(4-isopropylphenyl)oxazol-5 (4H)-one]: the IC50 is 3.9 ± 0.36 µM.
